# Reference: publication PMC11372076, “A dual inhibitor of PIP5K1C and PIKfyve prevents SARS-CoV-2 entry into cells” (Experimental & Molecular Medicine, 2024)
# Like-named read-outs stand apart in the source and are kept apart here.
# Assays:
# SARS-CoV-2 = test: microbe, parasite or virus in culture; assay type: cell-based, SARS-CoV-2 (hCoV-19/Korea/KCDC06/2020); details: for EC50: read-out: EC50 (reducing number of spike-positive cells by 50%)
# Vero cells [1] = test: Endosomal pH change test with acridine orange; assay type: cell-based; details: 1 µM for 1 h
# Description: This image-based experiment was performed according to our previous report with some modifications. Vero cells were cultured in a glass bottom 35 mm dish (6 × 10^4 cells per well) overnight. Each compound, including 1 µM UNC3230, apilimod or UNI418, was added to Vero cells for 1 h at 37 °C. The cells were stained with acridine orange (Sigma‒Aldrich, A9231) at a final concentration of 4 µg/mL for 30 min. After washing with PBS twice, images were acquired using a confocal microscope (Zeiss LSM 700, Baden-Württemberg, Germany) at two emission wavelengths, 493 to 560 nm and 590 to 720 nm, with excitation at 488 nm. The green-to-red ratio or vacuole size was measured using the built-in software ZEN 3.1.
# Fig. 3 UNI418 negatively affects autophagosome-lysosome fusion and endosome acidification. a Live-cell imaging of HEK293T cells stably expressing mCherry-GFP-LC3 treated with 0.5 μM UNI418 at the indicated time points; the images within the white rectangular boxes are magnified on the right side. Scale bar, 30 µm. The number (b) and area (c) of GFP-positive dots per cell were quantified by ImageXpress. d Immunofluorescence images illustrating the inhibition of endolysosomal acidification by UNI418. Vero cells were treated with the mock control or 1 µM UNC3230, apilimod or UNI418 for 1 h at 37 °C. Acridine orange (4 µg/mL) was added to the compound-treated live cells, followed by additional incubation for 30 min. The cells were analyzed by confocal microscopy using two emission wavelengths at 493–560 (green) and 590–720 nm (red) after excitation at 488 nm. Merged images are presented, and images within the white rectangular boxes are magnified on the right side. Original magnification, 630×. The green-to-red fluorescence intensity ratio (e) and the area of fluorescent spots (f) were quantified. b, c, e, f The data are presented as the means ± SEMs, with a minimum of 200 spots. Statistical significance was determined by Student’s t test; *p < 0.05, **p < 0.01, ***p < 0.001 and ****p < 0.0001. n.s., not significant.
# [2] = system: Wuhan-Hu-1 spike-pseudotyped virus; test: microbe, parasite or virus in culture; assay type: cell-based, SARS-CoV-2; details: read-out: concentration that inhibited spike-mediated viral entry by 50% compared to maximal inhibition
# [3] = system: ACE2-mediated endocytosis in HEK293T cells; assay type: cell-based; details: 20 μg/mL spike-RBD, 2 h
# RPE1 cells [4] = test: Vacuolization analysis; assay type: cell-based
# Description: CUGAUCAAGAU G A -3 and PIKfyve#2 siRNA 5'-
# […] -3'. siRNA oligonucleotides were purchased from Genolution, Sigma- Aldrich and Integrated DNA Technologies.
# These siRNAs were transfected into the cell using lipofectamine RNAiMAX (Invitrogen, 13778150) following manufacturer ’s protocol.
# RPE1 cells were treated with UNI418 at indicated concentration for over-night.
# After that, the image was taken by EVOS M5000 (Thermo Fisher Scientific).
# RPE1 cells were treated with UNI418 at the different concentration during the time. Live cell images were taken by Lionheart LX Automated Microscope and analyzed in Gen5 (Agilent).
# RPE1 cells were treated with indicated doses of UNI418 overnight. To analyze PIP2 level by flow cytometry, trypsinized cells were fixed with 4% paraformaldehyde for 10 min at room temperature. The fixed cells were permeabilized with 0.2% PBS-T (Triton X-100) for 5min and blocked with 5% Bovine Serum Albumin (BSA), and stained with the primary antibody for 4h at 4°C. Cells were washed three times with 1% BSA-PBS and incubated with the fluorescence- conjugated secondary antibody Alexa Fluor® 488 AffiniPure Goat Anti-Mouse IgG (H+L) (Jackson ImmunoResearch,111- 545- 003) for 1h at room temperature analyzed by BD Accuri C6 Plus flow cytometer (BD Biosciences). […]
# RPE1 cells [5] = test: Western blot of autophagy-monitoring proteins SQSTM1/p62 and LC3-II; assay type: cell-based
# Description: Fig. 2 UNI418 inhibits autophagy. a Western blot analysis of p62, LC3B-I, LC3B-II and GAPDH in the presence of UNC3230, apilimod and UNI418. b Immunofluorescence staining with LC3B (green) and p62 (red) antibodies upon treatment with UNC3230, apilimod and UNI418, and images within the white rectangular boxes are magnified on the right side. Scale bar, 20 µm. c The area of fluorescence intensity from immunofluorescence images (b) was quantified after UNC3230, apilimod and UNI418 treatments. d, e Quantification of autophagic flux under normal conditions and under HBSS-induced starvation conditions with or without UNI418 treatment. RPE1 cells were treated with UNI418 (0.5 µM or 1 µM) for 2 h in the presence or absence of a lysosomal inhibitor (bafilomycin A1, BFA). Representative Western blot images (d) and the graph showing the average of 4 independent experiments (e). The error bars indicate the S.D. Statistical analysis was performed using two-way ANOVA; *p < 0.05, ***p < 0.001.
# Supplementary Materials and Methods
# The whole cell extracts were prepared by lysis of harvested cells with M -PER Mammalian protein extraction reagent (Thermo Fisher Scientific). The protein concentrations were determined by Bradford protein assay (Bio- Rad). The 10 to 20 μ g of prepared proteins were separated by the SDS-PAGE and transferred to PVDF membrane, which were then blocked in 5% skim milk for 30 minutes at room temperature. […] The images were obtained and quantified by Fusion solo ChemiDoc system (Vilber).
# Autophagic flux assay was analyzed essentially as previously described1,2.
# Briefly, RPE1 cells were treated with UNI418 (0, 0.5, or 1 µM) for 2 h with/without bafilomycin A1 to inhibit lysosomal degradation under normal growth media or HBSS. […] The LC3- II bands were quantified using Fusion Solo ChemiDoc system (Vilber) and normalized to GAPDH bands.
# Autophagy flux was calculated by subsidizing the lysosomal inhibitor-treated cells to non- treatment cells in both normal growth media and HBSS-induced starvation with 0, 0.5, or 1 µM UNI418. […]
# cathepsin D = test: Cathepsin D maturation by Western blot; assay type: cell-based
# Vero cells [6] = system: Vero cells
# in vitro = details: African green monkey
compound,measurement,setting,value
NC(=O)c1nc(Nc2ccccc2)sc1NC(=O)C1CCCCC1 [UNC3230],EC50,SARS-CoV-2,95.1 µM
same,green-to-red ratio of fluorescent spots relative to mock-treated sample,Vero cells [1],2.6 fold
same,IC50,[2],4 µM
same,ACE2-mediated endocytosis triggered by spike-RBD,[3]; 0.5 μM compound,successfully inhibited
same,vacuolization,RPE1 cells [4],did not induce vacuoles
same,accumulation of SQSTM1/p62 and LC3-II,RPE1 cells [5],did not have the same effect
same,proteolytic cleavage (maturation) of cathepsin D,cathepsin D,did not
same,cytotoxicity on Day 2,"Vero cells [6]; Vero cells, Day 2",highly toxic
same,CC50,"Vero cells [6]; mock-infected Vero cells, MTT, Day 1",> 100 µM
O=C(N/N=C/c1ccc(O)c(O)c1)c1cc2ccccc2cc1O [dynasore],ACE2-mediated endocytosis triggered by spike-RBD,[3]; 0.1 mM dynasore,successfully inhibited
CCC(CC)COC(=O)[C@H](C)N[P@](=O)(OC[C@H]1O[C@@](C#N)(c2ccc3c(N)ncnn23)[C@H](O)[C@@H]1O)Oc1ccccc1 [remdesivir],EC50,"SARS-CoV-2; Severe acute respiratory syndrome coronavirus 2, Vero, 48 h",8.9 µM
same,"selectivity index (SI), ratio of CC50 to EC50","SARS-CoV-2; Vero cells, Day 2",> 11.2
same,CC50,in vitro,> 100 µM
